Measurements taken from US20240122179A1, “AUXINIC HERBICIDES AND METHODS OF USE THEREOF” (CORTEVA AGRISCIENCE LLC, priority 2021, published 2024).
Like-named read-outs stand apart in the source and are kept apart here.

Columns and labels:
[1] = Volatility of compounds measured by thermogravimetric analysis (TGA), rate of weight loss; type: physicochemical; conditions: estimates of volatility
Text: Briefly, the rate of weight loss measured in units of […]g/min can be used to determine vapor pressure as shown by the simplified equation: wherein, k is the intrinsic volatility and A is the surface area, Referring now to FIG. 2. A graph of weight loss as function of time for solid samples produces a linear curve; the slope of the curve is the rate of weight loss. When this method is used to measure the volatility of aqueous salt concentrates or liquid concentrates, the water or acetone present in the sample volatilizes before the sample of interest. The first linear loss region of the curve is the loss of water or acetone and the second linear region is characteristic of the sample of interest. In order to illustrate the difference in volatility between some of the compounds disclosed herein and the widely used herbicide dicamba, data from both the compounds and dicamba are presented Table 3 and in FIG. 1.

[2] = system: Conyza canadensis (L.) (ERICA); test: Postemergence herbicide evaluation, percent reduction in plant size vs untreated control, 21 days after treatment; type: in vivo, Conyza canadensis (L.) (Horseweed); conditions: Erigeron canadensis, post-emergence, 504 h, ERICA, postemergence, read-out: Control/Injury; for pest or weed control at 140 g/ha: rate 140 g ae/ha; for pest or weed control at 280 g/ha: rate 280 g ae/ha
Procedure, shortened: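 Track-sprayer applications (187 L/ha, 276 kPa) of 140 or 280 g ae/ha, technical material dissolved in acetone/DMSO then diluted with crop oil and surfactant-containing solvent, to greenhouse Conyza canadensis at 2-8 leaves. After 21 days, size reduction relative to untreated plants was recorded; 3-4 randomized replicates.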

Amaranthus rudis (AMATA) = test: as above; type: in vivo, Amaranthus rudis (tall water hemp); conditions: Amaranthus tuberculatus, post-emergence, 504 h, AMATA, postemergence, read-out: Control/Injury; for pest or weed control at 140 g/ha: rate 140 g ae/ha; for pest or weed control at 280 g/ha: rate 280 g ae/ha
Procedure, shortened: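 Growth-reduction values are percent decrease in plant size relative to untreated plants, scored 21 days post-application. Amaranthus rudis (2-8 leaves) received postemergence sprays at 140 or 280 g ae/ha, 187 L/ha, in a mixed acetone/DMSO/water/isopropanol carrier with crop oil concentrate. Greenhouse conditions were 25-28° C, 50-60% RH; 3-4 randomized replicates.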

[3] = system: Ambrosia artemisiifolia (AMBEL); test: as above; type: in vivo, Ambrosia artemisiifolia (common ragweed); conditions: post-emergence, 504 h, AMBEL, postemergence, read-out: Control/Injury; for pest or weed control at 140 g/ha: rate 140 g ae/ha; for pest or weed control at 280 g/ha: rate 280 g ae/ha
Procedure, shortened: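 Test compounds at 140 or 280 g ae/ha were applied by track sprayer (187 L/ha, spray solution containing acetone/DMSO, isopropanol, crop oil, surfactant) to 2–8 leaf plants, 3–4 replicates. Plants were kept in a greenhouse at 25–28 °C. Size reduction was scored against untreated controls at 21 days.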

Kochia scoparia (KCHSC) = test: as above; type: in vivo; conditions: Bassia scoparia, post-emergence, 504 h, KCHSC, postemergence, read-out: Control/Injury; for pest or weed control at 140 g/ha: rate 140 g ae/ha; for pest or weed control at 280 g/ha: rate 280 g ae/ha
Procedure, shortened: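 Values are percent reduction in plant size against an untreated control, measured 21 days after a single postemergence spray at 140 or 280 g ae/ha (187 L/ha, 276 kPa). Treatments used 3-4 randomized complete-block replicates on 2 to 8 leaf-stage plants kept in a 25-28 °C greenhouse, with compounds in acetone/DMSO-based solvent containing crop oil and surfactant.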

[4] = system: Amaranthus palmeri (AMAPA); test: as above; type: in vivo, Amaranthus palmeri (Palmer amaranth); conditions: post-emergence, 504 h, postemergence, read-out: Control/Injury; for pest or weed control at 140 g/ha: rate 140 g ae/ha; for pest or weed control at 280 g/ha: rate 280 g ae/ha
Procedure, shortened: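 Percent reduction in plant size relative to untreated plants, measured 21 days after track-sprayer application (187 L/ha) of 140 or 280 g ae/ha to Amaranthus palmeri at the 2 to 8 leaf stage. Randomized complete block, 3 or 4 replicates, greenhouse at 25 to 28° C; spray solution acetone/DMSO with isopropanol, water and crop oil concentrate.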

Glycine max = test: whole plant or invertebrate; conditions: for Control/Injury: in vivo; for plant injury at 140 g/ha / plant injury at 280 g/ha: Glycine max, post-emergence, 504 h, read-out: Control/Injury
Procedure, shortened: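 Greenhouse soybean (25–28 °C, 16 h light) sprayed post-emergence at 2–8 leaf stage with 140 or 280 g ae/ha in acetone/DMSO-based spray solution with crop oil concentrate, 187 L/ha by track sprayer; 3–4 replicates, randomized blocks. Plant size reduction versus untreated control measured 21 days after treatment.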

[5] = percent reduction vs untreated control, 21 days after treatment
[6] = percent reduction vs untreated, 21 days after treatment
[7] = R-AMAPA, percent reduction vs untreated control, 21 days after treatment

Structure (SMILES)	Volatility [1] [ng/min]	pest or weed control at 140 g/ha [2, 5] [%]	pest or weed control at 280 g/ha [2, 5] [%]	pest or weed control at 140 g/ha (Amaranthus rudis (AMATA)) [%]	pest or weed control at 280 g/ha (Amaranthus rudis (AMATA)) [%]	pest or weed control at 140 g/ha [3] [%]	pest or weed control at 280 g/ha [3] [%]	also measured
COc1c(Cl)ccc(Cl)c1C(=O)O/N=C(\N)c1ccsc1 [Compound A-37]	0.145	87	96					
COc1c(Cl)ccc(Cl)c1C(=O)O/N=C(\N)Cc1ccccc1 [Compound A-8]	0.189	98	99					
COc1c(Cl)ccc(Cl)c1C(=O)O/N=C(\N)c1cccs1 [Compound A-36]	0.417	83	98					
COc1c(Cl)ccc(Cl)c1C(=O)O/N=C(\N)c1ccccc1Cl [Compound A-13]	0.012							
COc1c(Cl)ccc(Cl)c1C(=O)O/N=C(\N)CC(C)C [Compound A-59]	0.086	94	99					
COc1c(Cl)ccc(Cl)c1C(=O)O/N=C(\N)c1ccc(Cl)cc1Cl [Compound A-15]	0.0098	98	96					
COc1ccccc1/C(N)=N/OC(=O)c1c(Cl)ccc(Cl)c1OC [Compound A-21]	0.074	95	98					
COc1ccc(/C(N)=N/OC(=O)c2c(Cl)ccc(Cl)c2OC)cc1 [Compound A-20]	0.04							
COc1c(Cl)ccc(Cl)c1C(=O)OCc1ccc(COC(=O)c2c(Cl)ccc(Cl)c2OC)cc1 [Compound A-56]	0.08							
COc1c(Cl)ccc(Cl)c1C(=O)O/N=C(\N)c1ccc(Cl)c(Cl)c1 [Compound A-14]	0.056							
COc1c(Cl)ccc(Cl)c1C(=O)O/N=C(\N)c1ccc2ncccc2c1 [Compound A-25]	0.021	95	90					
COc1c(Cl)ccc(Cl)c1C(=O)O/N=C(\N)c1ccc2ccoc2c1 [Compound A-26]	0.0034	93	93					
COc1c(Cl)ccc(Cl)c1C(=O)O/N=C(\C)C/C(C)=N/OC(=O)c1c(Cl)ccc(Cl)c1OC [Compound A-58]	0.11							
COc1c(Cl)ccc(Cl)c1C(=O)OCc1cccnc1 [Compound A-45]	0.73							
COc1c(Cl)ccc(Cl)c1C(=O)Oc1nc(-c2ccccc2)cs1 [Compound A-120]				40	58	68	85	pest or weed control at 140 g/ha (Kochia scoparia (KCHSC); [6]): 63%; pest or weed control at 280 g/ha (Kochia scoparia (KCHSC); [6]): 85%; pest or weed control at 140 g/ha ([4]; AMAPA): 28%; pest or weed control at 280 g/ha ([4]; AMAPA): 45%; pest or weed control at 140 g/ha [2]: 85%; pest or weed control at 280 g/ha [2]: 99%; Control/Injury (Glycine max): 5
CO/C(=N\OC(=O)c1c(Cl)ccc(Cl)c1OC)c1ccccc1 [Compound A-83]		90	97	65	65	93	87	pest or weed control at 140 g/ha (Kochia scoparia (KCHSC); [5]): 85%; pest or weed control at 280 g/ha (Kochia scoparia (KCHSC); [5]): 94%; pest or weed control at 140 g/ha [4, 7]: 70%; pest or weed control at 280 g/ha [4, 7]: 83%; plant injury at 140 g/ha (Glycine max): 22%; plant injury at 280 g/ha (Glycine max): 15%
COc1c(Cl)ccc(Cl)c1C(=O)O/N=C/c1cccc(/C=N/OC(=O)c2c(Cl)ccc(Cl)c2OC)c1 [Compound A-143]				73	48	86	86	pest or weed control at 140 g/ha (Kochia scoparia (KCHSC); [6]): 88%; pest or weed control at 280 g/ha (Kochia scoparia (KCHSC); [6]): 88%; pest or weed control at 140 g/ha [4, 7]: 70%; pest or weed control at 280 g/ha [4, 7]: 64%; pest or weed control at 140 g/ha [2, 6]: 80%; pest or weed control at 280 g/ha [2, 6]: 93%; Control/Injury (Glycine max): 0
COc1c(Cl)ccc(Cl)c1C(=O)Oc1cncnc1 [Compound A-66]		0	2	0	2	15	15	pest or weed control at 140 g/ha (Kochia scoparia (KCHSC)): 0%; pest or weed control at 280 g/ha (Kochia scoparia (KCHSC)): 0%; pest or weed control at 140 g/ha [4, 7]: 13%; pest or weed control at 280 g/ha [4, 7]: 5%; Control/Injury (Glycine max): 3
COc1c(Cl)ccc(Cl)c1C(=O)NS(=O)(=O)c1nccn1C [Compound A-79]		0	2	7	13	15	22	pest or weed control at 140 g/ha (Kochia scoparia (KCHSC); [5]): 0%; pest or weed control at 280 g/ha (Kochia scoparia (KCHSC); [5]): 3%; pest or weed control at 140 g/ha [4, 7]: 13%; pest or weed control at 280 g/ha [4, 7]: 10%; plant injury at 140 g/ha (Glycine max): 6%; plant injury at 280 g/ha (Glycine max): 3%
COc1c(Cl)ccc(Cl)c1C(=O)Oc1cc(C(F)(F)F)n(C)n1 [Compound A-118]				68	80	80	97	pest or weed control at 140 g/ha (Kochia scoparia (KCHSC); [6]): 83%; pest or weed control at 280 g/ha (Kochia scoparia (KCHSC); [6]): 99%; pest or weed control at 140 g/ha ([4]; AMAPA): 63%; pest or weed control at 280 g/ha ([4]; AMAPA): 73%; pest or weed control at 140 g/ha [2]: 93%; pest or weed control at 280 g/ha [2]: 96%; Control/Injury (Glycine max): 8
COc1c(Cl)ccc(Cl)c1C(=O)O/N=C(\N)CCC/C(N)=N/OC(=O)c1c(Cl)ccc(Cl)c1OC [Compound A-144]				71	77	88	88	pest or weed control at 140 g/ha (Kochia scoparia (KCHSC); [6]): 89%; pest or weed control at 280 g/ha (Kochia scoparia (KCHSC); [6]): 99%; pest or weed control at 140 g/ha [4, 7]: 59%; pest or weed control at 280 g/ha [4, 7]: 71%; pest or weed control at 140 g/ha [2, 6]: 83%; pest or weed control at 280 g/ha [2, 6]: 75%; Control/Injury (Glycine max): 0
